Here are results for 2 compounds from US10246498B2, “Genetically encoded histone reporter allele constructs” (THE JOHNS HOPKINS UNIVERSITY, priority 2014, dated 2019).

The test system of assay [1] is H3K4 trimethylation activity in MEFs. Kind of assay: H3K4me3 indicator in murine embryonic fibroblasts from Kmt2d+/βGeo and Kmt2d+/+ mice. The format is cell-based, mouse. Particulars: Kmt2d+/βGeo cells (MEFs). From the text:
An H3K4 trimethylation reporter was also created (FIG. 5B). This reporter is based on the H3 tail on one end and the TBP associated factor III (TAFIII) […] on the other end; the TAFIII […] only identifies and binds to trimethylated K4 on H3. When the H3K4 site gets trimethylated, the TAFIII […] can bind to the modified H3 tail and bring the two parts of the separated GFP in close proximity. The activity of the epigenetic modification system can be quantified through fluorescence.
(§1) Epigenetic reporter alleles were synthesized (OriGene, Rockville, Md.) using published sequences for component elements (Baird et al. (1999) Proc. Natl. Acad. Sci. 96:11241-6; Souslova et al. (2007) BMC Biotechnol. 7:37). Single nucleotide mutations were created using the QuickChange Lightening kit (Agilent Technologies Inc, Santa Clara, Calif.). For H4ac indicator, K5R, K8R, K12R, K16R and K20R (MUT indicator) were introduced. For H3K4me3 indicator, K4Q and D890A/W891A and M882A (three separate constructs) were introduced. For transient transfections, mouse embryonic fibroblasts (see below) were transfected with Fugene HD (Promega, Madison, Wis.), 48 hours prior to FACS. […] For drug stimulation, drug was added to the media 24 hours prior to FACS. For stable transfections in T293 (American Type Culture Collection) cells, 10 μg/ml of Blastocidin (Life Technologies, Carlsbad, Calif.) was added to the media for several weeks. For stable transfection in MEFs, the reporter was transferred to a ViraPower Lentiviral Expression System (Life Technologies, Carlsbad, Calif.). After selection with Blastocidin, the drug of interest was added 24 hours prior to FACS. SAHA, AR-42 and MS275 were purchased from Selleck (Selleck Chemicals, Houston, Tex.). […] FACS data were analyzed using FlowJo (Tree Star Inc, Ashland, Oreg.). A plasmid expressing HDAC3 was acquired from Addgene (Cambridge, Mass., plasmid 13819) and transfected into a stable cell line carrying the H4 acetyl reporter allele.

For assay [2], the system named is acetylation machinery (acetylation of H4 at K5, K8, K12, K16). In words: H4 acetylation (H4ac) reporter allele, GFP fluorescence by FACS. The format is cell-based. Particulars: for cells easily discriminated from auto fluorescence (% positive cells), H4ac reporter: FACS.
From the text: The acetyl reporter protein quantifies the activity of the acetylation machinery (acetylation of H4 specifically at the 5th, 8th, 12th and 16th Lysine's) and comprises an H4 tail on one end (the target for acetylation) and a TBP associated factor II (TAFII) bromodomain on the other end of the reporter protein (FIG. 5A). The TAFII bromodomain only recognizes and binds to the acetylated H4 tail, resulting in reconstitution of GFP structure and function (i.e. fluorescence). Therefore, the reporter protein has no fluorescence unless it is acetylated by the acetylation system of the nucleus of the cell.
as §1
Epigenetic reporter systems were created that monitor either H4 acetylation or H3K4 trimethylation machinery activity in an effort to determine whether there is an ongoing activity deficiency in cells from Kmt2d^+/βGeo mice (FIG. 18A). Both reporter alleles encode halves of green fluorescent protein separated by a flexible linker region (Baird et al. (1999) Proc. Natl. Acad. Sci. 96: 11241-6) with a histone tail and a histone reader at the N- and C-termini, respectively. When the histone tail corresponding to either H4 or H3 is modified by acetylation or methylation, respectively, GFP structure and function are reconstituted, as detected by a fluorescent readout (FIG. 18B). The acetyl reporter protein quantifies the activity of the acetylation machinery (acetylation of H4 specifically at sites K5, K8, K12, and K16) and comprises an H4 tail (residues 1-30) on one end and a TATA binding protein (TBP)-associated factor II (TAFII) bromodomain on the other end (FIG. 18A). The TAFII bromodomain only recognizes and binds to the acetylated H4 tail. […] For example, only 5% of cells were easily discriminated from auto fluorescence with 1 μM of SAHA, but increased to 20% with 2.5 μM of SAHA, 40% at 7.5 μM of SAHA and 45% at 10 μM of SAHA (FIG. 18D). Saturation of this response correlates well with immunoblot data using antibodies to the modified H4 tail (Munshi et al. (2006) Mol. Cancer Ther. 5:1967-74). This response is attenuated by co-transfection with a construct encoding a histone deacetylase (FIG. 20) and absent upon mutagenesis of all potential acetylation sites (FIG. 18E and FIG. 18I), attesting to its specificity. The H3K4 trimethylation reporter allele encodes the H3 tail (residues 1-40) on one end and the TBP-associated factor III (TAF3) plant homeodomain (PHD) on the other end, which binds to trimethylated K4 on H3 (FIG. 18A). […]

Entries after “also recorded” stand apart in the source; their conditions may differ.

For `Nc1ccccc1NC(=O)c1ccc(CNC(=O)OCc2cccnc2)cc1` [MS275], the H3K4 trimethylation activity entry in assay [1] is reported as “enhanced; also recorded: improved”.
In the case of `O=C(CCCCCCC(=O)Nc1ccccc1)NO` [SAHA, suberoylanilide hydroxamic acid], the “cells easily discriminated from auto fluorescence (% positive cells), H4ac reporter” value in assay [2] (1 μM SAHA) was 5%; in assay [2] (2.5 μM SAHA) it was 20%; in assay [2] (7.5 μM SAHA) it was 40%; in assay [2] (10 μM SAHA) it was 45%. Further, the “acetylation of the indicator” value in assay [2] (FIG. 19A) is recorded as “increases acetylation of the indicator”. Moreover, the “signal of the H4ac indicator” value in assay [2] (HEK293 cells stably expressing the indicator, attenuated by recombinant HDAC3) is given as “increased signal”. Further, the “fluorescence response of the acetylation indicator” value in assay [2] (increasing amounts of drug, culture systems) was “linear fluorescence response; also recorded: increasing fluorescence with increasing amounts”.
